Assay results reported in US10844044B2 (Vanderbilt University, priority 2018, dated 2020).
pKi: −log10 of the molar value. Read-outs that look alike come from different tables or passages of the source.

Key:
[1] = system: MV4:11 human cancer cell lines; experiment: Anti-proliferative activity, CellTiter-Glo viability assay, 7 day protocol; format: cell-based; details: Homo sapiens, MV4-11, 168 h, MV4:11 cells, 7 day incubation, read-out: GI50 on cellular proliferation of MV4:11 human cancer cell lines
Outline: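 Luminescent CellTiter-Glo readout after 7-day compound exposure of MV4:11 cells plated at 3600 cells/ml (final DMSO 0.1%). GI50 derived from three biological × three technical replicates, reported as mean ± S.E.M.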

[2] = molecular target: WDR5 (Homo sapiens (Human), UniProt P61964); experiment: TR-FRET binding assay (displacement of 10mer-Thr-FAM probe from WDR5); details: read-out: Ki for Inhibition of WDR5 by TR-FRET assay
[3] = TR-FRET, 10mer-Thr-FAM probe, WDR5-His tag 2 nM, pH 7.0

CCOc1c(C(=O)N[C@H](c2ccc(F)c(C)c2)C2CC2)cc(CN2CCOC2=N)cc1-c1cn(C)nc1C(F)(F)F [Example 303, (S)—N-(Cyclopropyl(4-fluoro-3-methylphenyl)methyl)-2-ethoxy-5-((2-iminooxazolidin-3-yl)methyl)-3-(1-methyl-3-(trifluoromethyl)-1H-pyrazol-4-yl)benzamide]
GI50 [1]: < 100 nM
pKi [2, 3]: > 10.00

COc1cc(CNC(=O)c2cc(Cn3ccn(C)c3=N)cc(-c3ccc(F)cc3C(F)(F)F)c2)cc(OC)c1 [Example 98, N-(3,5-Dimethoxybenzyl)-4′-fluoro-5-((2-imino-3-methyl-2,3-dihydro-1H-imidazol-1-yl)methyl)-2′-(trifluoromethyl)-[1,1′-biphenyl]-3-carboxamide]
GI50 [1]: 160 nM
pKi [2, 3]: 10.22

Cc1cc([C@@H](NC(=O)c2cc(Cn3ccn(C4CC4)c3=N)cc(-c3cn(C(C)C)nc3C(F)(F)F)c2)C2CC2)ccc1F [Example 194, (S)—N-(Cyclopropyl(4-fluoro-3-methylphenyl)methyl)-3-((3-cyclopropyl-2-imino-2,3-dihydro-1H-imidazol-1-yl)methyl)-5-(1-isopropyl-3-(trifluoromethyl)-1H-pyrazol-4-yl)benzamide]
GI50 [1]: < 100 nM
pKi [2, 3]: > 10.00

CCn1cc(-c2cc(CN3CCCC3=N)cc(C(=O)N[C@H](c3ccc(F)c(Cl)c3)C3CC3)c2)c(C(F)(F)F)n1 [Example 338, (S)—N-((3-Chloro-4-fluorophenyl)(cyclopropyl)methyl)-3-(1-ethyl-3-(trifluoromethyl)-1H-pyrazol-4-yl)-5-((2-iminopyrrolidin-1-yl)methyl)benzamide]
GI50 [1]: < 100 nM
pKi [2, 3]: > 10.00

Cc1cc([C@@H](NC(=O)c2cc(CN3CCOC3=N)cc(-c3cn(C(C)C)nc3C(F)(F)F)c2)C2CC2)ccc1F [Example 275, (S)—N-(Cyclopropyl(4-fluoro-3-methylphenyl)methyl)-3-((2iminooxazolidin-3-yl)methyl)-5-(1-isopropyl-3-(trifluoromethyl)-1H-pyrazol-4-yl)benzamide]
GI50 [1]: < 100 nM
pKi [2, 3]: > 10.00

Cc1cc([C@@H](NC(=O)c2cc(Cn3ccn(C)c3=N)cc(-c3cc(C(F)(F)F)nn3C)c2)C2CC2)ccc1F [Example 196, (S)—N-(Cyclopropyl(4-fluoro-3-methylphenyl)methyl)-3-((2-imino-3-methyl-2,3-dihydro-1H-imidazol-1-yl)methyl)-5-(1-methyl-3-(trifluoromethyl)-1H-pyrazol-5-yl)benzamide]
GI50 [1]: < 100 nM
pKi [2, 3]: > 10.00

COc1cc(OC)cc([C@@H](NC(=O)c2cc(Cn3ccoc3=N)cc(-c3ccc(F)cc3Cl)c2)C2CC2)c1 (stereo in doubt) [Example 249, 2′-Chloro-N-(cyclopropyl(3,5-dimethoxyphenyl)methyl)-4′-fluoro-5-((2-iminooxazol-3(2H)-yl)methyl)-[1,1′-biphenyl]-3-carboxamide]
GI50 [1]: 370 nM
pKi [2, 3]: > 10.00

Cn1cc(-c2cc(CN3CCSC3=N)cc(C(=O)N[C@H](c3ccc(Cl)c(Cl)c3)C3CC3)c2)c(C(F)(F)F)n1 [Example 310, (S)—N-(Cyclopropyl(3,4-dichlorophenyl)methyl)-3-((2-iminothiazolidin-3-yl)methyl)-5-(1-methyl-3-(trifluoromethyl)-1H-pyrazol-4-yl)benzamide]
GI50 [1]: 170 nM
pKi [2]: > 10.00

Cc1cnccc1-c1cc(Cn2ccn(C)c2=N)cc(C(=O)NCc2ccc(Cl)c(Cl)c2)c1 [Example 25, N-(3,4-dichlorobenzyl)-3-((2-imino-3-methyl-2,3-dihydro-1H-imidazol-1-yl)methyl)-5-(3-methylpyridin-4-yl)benzamide]
GI50 [1]: 6100 nM
pKi [2, 3]: 8.89

Cc1cccc(C2(NC(=O)c3cc(Cn4ccn(C)c4=N)cc(-c4cn(C)nc4C(F)(F)F)c3)CCC2)c1 [Example 220, 3-((2-Imino-3-methyl-2,3-dihydro-1H-imidazol-1-yl)methyl)-5-(1-methyl-3-(trifluoromethyl)-1H-pyrazol-4-yl)-N-(1-(m-tolyl)cyclobutyl)benzamide]
GI50 [1]: 220 nM
pKi [2, 3]: > 10.00

Cc1ccnc(C(NC(=O)c2cc(Cn3ccn(C)c3=N)cc(-c3ccc(F)cc3C)c2)C2CC2)c1 (stereo not drawn) [Example 9, N-(Cyclopropyl(4-methylpyridin-2-yl)methyl)-4′-fluoro-5-((2-imino-3-methyl-2,3-dihydro-1H-imidazol-1-yl)methyl)-2′-methyl-[1,1′-biphenyl]-3-carboxamide]
GI50 [1]: 220 nM
pKi [2, 3]: 9.82

CC(C)n1cc(-c2cc(CN3CCOC3=N)cc(C(=O)N[C@H](c3ccc(F)c(F)c3)C3CC3)c2)c(C(F)(F)F)n1 [Example 286, (S)—N-(Cyclopropyl(3,4difluorophenyl)methyl)-3-((2-iminooxazolidin-3-yl)methyl)-5-(1-isopropyl-3-(trifluoromethyl)-1H-pyrazol-4-yl)benzamide]
GI50 [1]: < 100 nM
pKi [2, 3]: > 10.00

CCOc1c(C(=O)N[C@@H](C)c2ccc(F)c(C)c2)cc(Cn2ccn(C)c2=N)cc1-c1cn(C)nc1C(F)(F)F [Example 209, (S)-2-Ethoxy-N-(1-(4-fluoro-3-methylphenyl)ethyl)-5-((2-imino-3-methyl-2,3-dihydro-1H-imidazol-1-yl)methyl)-3-(1-methyl-3-(trifluoromethyl)-1H-pyrazol-4-yl)benzamide]
GI50 [1]: < 100 nM
pKi [2, 3]: > 10.00

CCn1cc(-c2cc(Cn3ccsc3=N)cc(C(=O)N[C@H](c3ccc(F)c(OC)c3)C3CC3)c2)c(C(F)(F)F)n1 [Example 328, (S)—N-(Cyclopropyl(4-fluoro-3-methoxyphenyl)methyl)-3-(1-ethyl-3-(trifluoromethyl)-1H-pyrazol-4-yl)-5-((2-iminothiazol-3(2H)-yl)methyl)benzamide]
GI50 [1]: < 100 nM
pKi [2, 3]: > 10.00

Cc1cc([C@@H](NC(=O)c2cc(Cn3ccn(C4CC4)c3=N)cc(-c3cccnc3C(F)(F)F)c2)C2CC2)ccc1F [Example 115, (S)—N-(Cyclopropyl(4-fluoro-3-methylphenyl)methyl)-3-((3-cyclopropyl-2-imino-2,3-dihydro-1H-imidazol-1-yl)methyl)-5-(2-(trifluoromethyl)pyridin-3-yl)benzamide]
GI50 [1]: < 100 nM
pKi [2, 3]: > 10.00

COc1cc(CNC(=O)c2cc(Cn3ccn(C)c3=N)cc(-c3ccc(F)cc3OC(F)F)c2)cc(OC)c1 [Example 62, 2′-(Difluoromethoxy)-N-(3,5-dimethoxybenzyl)-4′-fluoro-5-((2-imino-3-methyl-2,3-dihydro-1H-imidazol-1-yl)methyl)-[1,1′-biphenyl]-3-carboxamide]
GI50 [1]: 800 nM
pKi [2, 3]: 9.54

COc1cc(CNC(=O)c2cc(Cn3ccn(C)c3=N)cc(-c3c(C)cc(F)cc3F)c2)cc(OC)c1 [Example 52, N-(3,5-dimethoxybenzyl)-2′,4′-difluoro-5-((2-imino-3-methyl-2,3-dihydro-1H-imidazol-1-yl)methyl)-6′-methyl-[1,1′-biphenyl]-3-carboxamide]
GI50 [1]: 510 nM
pKi [2, 3]: 9.72

CCn1cc(-c2cc(Cn3ccn(C4CC4)c3=N)cc(C(=O)N[C@H](c3ccc(F)c(C)c3)C3CC3)c2)c(C(F)(F)F)n1 [Example 160, (S)—N-(Cyclopropyl(4-fluoro-3-methylphenyl)methyl)-3-((3-cyclopropyl-2-imino-2,3-dihydro-1H-imidazol-1-yl)methyl)-5-(1-ethyl-3-(trifluoromethyl)-1H-pyrazol-4-yl)benzamide]
GI50 [1]: < 100 nM
pKi [2, 3]: > 10.00

CCn1cc(-c2cc(Cn3ccn(C4CC4)c3=N)cc(C(=O)N[C@H](c3ccc(F)c(Cl)c3)C3CC3)c2)c(C(F)(F)F)n1 [Example 202, (S)—N-((3-Chloro-4-fluorophenyl)(cyclopropyl)methyl)-3-((3-cyclopropyl-2-imino-2,3-dihydro-1H-imidazol-1-yl)methyl)-5-(1-ethyl-3-(trifluoromethyl)-1H-pyrazol-4-yl)benzamide]
GI50 [1]: < 100 nM
pKi [2, 3]: > 10.00

Cc1ccnc(C(NC(=O)c2cc(Cn3ccn(C)c3=N)cc(-c3cccnc3C)c2)C2CC2)c1 (stereo not drawn) [Example 37, N-(Cyclopropyl(4-methylpyridin-2-yl)methyl)-3-((2-imino-3-methyl-2,3-dihydro-1H-imidazol-1-yl)methyl)-5-(2-methylpyridin-3-yl)benzamide]
GI50 [1]: 3800 nM
pKi [2, 3]: 9.40

Cc1cc([C@@H](NC(=O)c2cc(Cn3ccccc3=N)cc(-c3cn(C)nc3C(F)(F)F)c2)C2CC2)ccc1F [Example 352, (S)—N-(cyclopropyl(4-fluoro-3-methylphenyl)methyl)-3-((2-iminopyridin-1(2H)-yl)methyl)-5-(1-methyl-3-(trifluoromethyl)-1H-pyrazol-4-yl)benzamide]
GI50 [1]: < 100 nM
pKi [2, 3]: > 10.00

Cc1cc(C(C)NC(=O)c2cc(Cn3ccn(C)c3=N)cc(-c3ccc(F)cc3C)n2)ncc1Cl (stereo not drawn) [Example 55, N-(1-(5-Chloro-4-methylpyridin-2-yl)ethyl)-6-(4-fluoro-2-methylphenyl)-4-((2-imino-3-methyl-2,3-dihydro-1H-imidazol-1-yl)methyl)picolinamide]
GI50 [1]: 1800 nM
pKi [2, 3]: 8.74

Cc1cc([C@@H](NC(=O)c2cc(Cn3ccn(C)c3=N)cc(-c3ccc(F)cc3C(F)(F)F)n2)C2CC2)ccc1F [Example 107, (S)—N-(Cyclopropyl(4-fluoro-3-methylphenyl)methyl)-6-(4-fluoro-2-(trifluoromethyl)phenyl)-4-((2-imino-3-methyl-2,3-dihydro-1H-imidazol-1-yl)methyl)picolinamide]
GI50 [1]: 950 nM
pKi [2, 3]: 9.64

Cc1cc([C@@H](NC(=O)c2cc(Cn3ccn(C)c3=N)cc(C3CC3)c2)C2CC2)ccc1F [Example 139, (S)-3-Cyclopropyl-N-(cyclopropyl(4-fluoro-3-methylphenyl)methyl)-5-((2-imino-3-methyl-2,3-dihydro-1H-imidazol-1-yl)methyl)benzamide]
GI50 [1]: 730 nM
pKi [2]: 9.74
